Measurements reported in paper PMC8092218, “NirA Is an Alternative Nitrite Reductase from Pseudomonas aeruginosa with Potential as an Antivirulence Target” (mBio, 2021).

Target: T1, PA4130 (NirA) (Pseudomonas aeruginosa, UniProt Q9HWQ1)
T1 construct: full ORF, N-terminal hexahistidine tag, plasmid pSK4130-N; coexpressed with E. coli cysG in E. coli NiCo21; IMAC and chitin column; monomer; siroheme and 4Fe-4S
Assay: reduced methyl viologen oxidation assay, spectrophotometric; Griess diazotization
Format: biochemical
Conditions: electron acceptor; reduced methyl viologen or dithionite-reduced spinach ferredoxin as donor; anaerobic

T1 sequence (Q9HWQ1 entry or part of it): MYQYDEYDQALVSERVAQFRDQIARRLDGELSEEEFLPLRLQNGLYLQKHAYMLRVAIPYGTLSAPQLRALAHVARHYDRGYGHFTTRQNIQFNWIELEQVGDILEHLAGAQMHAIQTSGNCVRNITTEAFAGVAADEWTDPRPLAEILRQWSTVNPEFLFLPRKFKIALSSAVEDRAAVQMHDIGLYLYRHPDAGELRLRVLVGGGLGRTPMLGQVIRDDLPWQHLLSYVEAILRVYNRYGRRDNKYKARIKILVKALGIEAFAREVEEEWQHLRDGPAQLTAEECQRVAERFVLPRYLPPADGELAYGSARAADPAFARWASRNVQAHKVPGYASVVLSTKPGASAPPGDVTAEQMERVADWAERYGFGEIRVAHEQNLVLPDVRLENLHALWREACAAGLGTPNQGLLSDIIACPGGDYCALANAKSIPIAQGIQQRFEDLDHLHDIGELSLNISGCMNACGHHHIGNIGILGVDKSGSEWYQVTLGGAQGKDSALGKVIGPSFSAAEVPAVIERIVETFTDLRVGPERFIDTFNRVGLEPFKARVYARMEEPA

In the case of `O=NO` [nitrite], the “reduced methyl viologen oxidation assay, spectrophotometric; Griess diazotizatio” value is reported as “PA4130 was able to oxidize MV only in the presence of nitrite”.
